Results taken from US6737383B1, “Herbicidal oxadiazolidines” (priority 1999, dated 2004).

Columns and labels:
rape = assay: Test B pre/postemergence rape; type: in vivo, Brassica napus
In short: (§1)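 Herbicidal effect was estimated by eye on a ten-point control scale after plants spent twelve to sixteen days in a greenhouse following soil or foliar treatment. Foliar sprays targeted plants at one to four leaves; all doses were formulated in a non-phytotoxic solvent with surfactant.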

cocklebur = assay: Test B pre/postemergence cocklebur; type: in vivo, Xanthium strumarium
In short: as §1

pigweed = assay: Test B pre/postemergence pigweed; type: in vivo, Amaranthus retroflexus
In short: as §1

smallflower flatsedge = assay: Test B flood test smallflower flatsedge; type: in vivo, Cyperus difformis
In short: (§2)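 Each value is a visual injury score relative to controls, with 10 meaning complete control and 0 no effect. Evaluation took place twelve to sixteen days after the 2-leaf-stage plants were treated and kept in the greenhouse.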

soybean = assay: Test B pre/postemergence soybean; type: in vivo, Glycine max
In short: as §1

sugar beet = assay: Test B pre/postemergence sugar beet; type: in vivo, Beta vulgaris
In short: as §1

duck salad = assay: Test B flood test duck salad; type: in vivo, Heteranthera limosa
In short: as §2

bedstraw = assay: Test B pre/postemergence bedstraw; type: in vivo, Galium aparine
In short: as §1

corn = assay: Test B pre/postemergence corn; type: in vivo, Zea mays
In short: as §1

surinam grass = assay: Test B pre/postemergence surinam grass; type: in vivo, Brachiaria decumbens
In short: as §1

blackgrass = assay: Test B pre/postemergence blackgrass; type: in vivo, Alopecurus myosuroides
In short: as §1

velvetleaf = assay: Test B pre/postemergence velvetleaf; type: in vivo, Abutilon theophrasti
In short: as §1

morningglory = assay: Test B pre/postemergence morningglory; type: in vivo, Ipomoea hederacea
In short: as §1

giant foxtail = assay: Test B pre/postemergence giant foxtail; type: in vivo, Setaria faberii
In short: as §1

purple nutsedge = assay: Test B pre/postemergence purple nutsedge; type: in vivo, Cyperus rotundus
In short: as §1

bamyardgrass = assay: Test B flood test barnyardgrass; type: in vivo, Echinochloa crus-galli
In short: as §2

[1] = Postemergence, Rate 125 g/ha, scale of 0 to 10 where 0 is no effect and 10 is complete control
[2] = Preemergence, Rate 62 g/ha, scale 0 to 10 (0 no effect, 10 complete control)
[3] = Preemergence, Rate 125 g/ha, 0 is no effect, 10 is complete control
[4] = Preemergence, Rate 250 g/ha, scale 0 to 10, 0 is no effect, 10 is complete control
[5] = Preemergence, Rate 500 g/ha, scale 0 to 10 (0 no effect, 10 complete control)
[6] = Rate 62 g/ha, Postemergence, scale of 0 to 10 where 0 is no effect and 10 is complete control
[7] = Rate 250 g/ha, Postemergence, scale 0 to 10, 0 is no effect, 10 is complete control
[8] = Rate 500 g/ha, Postemergence, scale 0 to 10
[9] = Postemergence (flood test species), Rate 125 g/ha, scale of 0 to 10 where 0 is no effect and 10 is complete control
[10] = Rate 62 g/ha, Postemergence section, flood test species, scale of 0 to 10 where 0 is no effect and 10 is complete control
[11] = Rate 250 g/ha, Postemergence (flood test), scale 0 to 10, 0 is no effect, 10 is complete control
[12] = Rate 500 g/ha, listed under Postemergence (flood test species), scale 0 to 10

Question: How did the “Rape plant response rating” value (rape; [1]) turn out when `CC(C)N(C(=O)n1oc(=O)n(Cc2ccccc2Cl)c1=O)c1ccc(F)cc1` [Compound 140] was run?
Answer: 0

Question: What about the “Rape plant response rating” value (rape; [2]) of the same molecule?
Answer: 0

Question: What about the “Rape plant response rating (0 to 10 scale)” value (rape; [3]) of the same molecule?
Answer: 0

Question: And the “Rape plant response rating” value (rape; [4])?
Answer: 0

Question: And the “Rape plant response rating” value (rape; [5])?
Answer: 0

Question: And the “Rape plant response rating” value (rape; [6])?
Answer: 0

Question: What about the “Plant response rating, Rape” value (rape; [7]) of the same molecule?
Answer: 1

Question: And the “Rape plant response rating” value (rape; [8])?
Answer: 2

Question: And the “Cocklebur plant response rating” value (cocklebur; [1])?
Answer: 0

Question: And the “Cocklebur plant response rating” value (cocklebur; [2])?
Answer: 0

Question: What about the “Cocklebur plant response rating (0 to 10 scale)” value (cocklebur; [3]) of the same molecule?
Answer: 0

Question: What about the “Cocklebur plant response rating” value (cocklebur; [4]) of the same molecule?
Answer: 0

Question: What about the “Cocklebur plant response rating” value (cocklebur; [5]) of the same molecule?
Answer: 0

Question: And the “Cocklebur plant response rating” value (cocklebur; [6])?
Answer: 0

Question: What about the “Plant response rating, Cocklebur” value (cocklebur; [7]) of the same molecule?
Answer: 3

Question: And the “Cocklebur plant response rating” value (cocklebur; [8])?
Answer: 4

Question: What about the “Redroot pigweed plant response rating” value (pigweed; [1]) of the same molecule?
Answer: 1

Question: What about the “Redroot pigweed plant response rating” value (pigweed; [2]) of the same molecule?
Answer: 0

Question: What about the “Redroot pigweed plant response rating (0 to 10 scale)” value (pigweed; [3]) of the same molecule?
Answer: 0

Question: And the “Redroot pigweed plant response rating” value (pigweed; [4])?
Answer: 0

Question: And the “Redroot pigweed plant response rating” value (pigweed; [5])?
Answer: 0

Question: And the “Redroot pigweed plant response rating” value (pigweed; [6])?
Answer: 0

Question: What about the “Plant response rating, Redroot pigweed” value (pigweed; [7]) of the same molecule?
Answer: 2

Question: What about the “Redroot pigweed plant response rating” value (pigweed; [8]) of the same molecule?
Answer: 3

Question: What about the “S. Flatsedge plant response rating” value (smallflower flatsedge; [9]) of the same molecule?
Answer: 0

Question: And the “S. Flatsedge plant response rating” value (smallflower flatsedge; [10])?
Answer: 0

Question: And the “Plant response rating, S. Flatsedge” value (smallflower flatsedge; [11])?
Answer: 0

Question: And the “S. Flatsedge plant response rating” value (smallflower flatsedge; [12])?
Answer: 0

Question: And the “Soybean plant response rating” value (soybean; [1])?
Answer: 3

Question: What about the “Soybean plant response rating” value (soybean; [2]) of the same molecule?
Answer: 0

Question: What about the “Soybean plant response rating (0 to 10 scale)” value (soybean; [3]) of the same molecule?
Answer: 0

Question: And the “Soybean plant response rating” value (soybean; [4])?
Answer: 0

Question: What about the “Soybean plant response rating” value (soybean; [5]) of the same molecule?
Answer: 1

Question: And the “Soybean plant response rating” value (soybean; [6])?
Answer: 3

Question: What about the “Plant response rating, Soybean” value (soybean; [7]) of the same molecule?
Answer: 3

Question: What about the “Soybean plant response rating” value (soybean; [8]) of the same molecule?
Answer: 5

Question: And the “Sugarbeets plant response rating” value (sugar beet; [1])?
Answer: 0

Question: What about the “Sugarbeets plant response rating” value (sugar beet; [2]) of the same molecule?
Answer: 0

Question: What about the “Sugarbeets plant response rating (0 to 10 scale)” value (sugar beet; [3]) of the same molecule?
Answer: 0

Question: What about the “Sugarbeets plant response rating” value (sugar beet; [4]) of the same molecule?
Answer: 0

Question: And the “Sugarbeets plant response rating” value (sugar beet; [5])?
Answer: 1

Question: What about the “Sugarbeets plant response rating” value (sugar beet; [6]) of the same molecule?
Answer: 0

Question: What about the “Plant response rating, Sugarbeets” value (sugar beet; [7]) of the same molecule?
Answer: 0

Question: What about the “Sugarbeets plant response rating” value (sugar beet; [8]) of the same molecule?
Answer: 0

Question: What about the “Ducksalad plant response rating” value (duck salad; [9]) of the same molecule?
Answer: 0

Question: What about the “Ducksalad plant response rating” value (duck salad; [10]) of the same molecule?
Answer: 0

Question: And the “Plant response rating, Ducksalad” value (duck salad; [11])?
Answer: 0

Question: And the “Ducksalad plant response rating” value (duck salad; [12])?
Answer: 0

Question: And the “Bedstraw plant response rating” value (bedstraw; [1])?
Answer: 5

Question: And the “Bedstraw plant response rating” value (bedstraw; [2])?
Answer: 0

Question: And the “Bedstraw plant response rating (0 to 10 scale)” value (bedstraw; [3])?
Answer: 0

Question: What about the “Bedstraw plant response rating” value (bedstraw; [4]) of the same molecule?
Answer: 0

Question: What about the “Bedstraw plant response rating” value (bedstraw; [5]) of the same molecule?
Answer: 0

Question: And the “Bedstraw plant response rating” value (bedstraw; [6])?
Answer: 4

Question: And the “Plant response rating, Bedstraw” value (bedstraw; [7])?
Answer: 5

Question: And the “Bedstraw plant response rating” value (bedstraw; Rate 500 g/ha, Postemergence, scale 0 to 10, 0 no effect, 10 complete control)?
Answer: 6

Question: What about the “Corn plant response rating” value (corn; [1]) of the same molecule?
Answer: 0

Question: And the “Corn plant response rating” value (corn; [2])?
Answer: 0

Question: And the “Corn plant response rating (0 to 10 scale)” value (corn; [3])?
Answer: 0

Question: What about the “Corn plant response rating” value (corn; [4]) of the same molecule?
Answer: 0

Question: What about the “Corn plant response rating” value (corn; [5]) of the same molecule?
Answer: 0

Question: What about the “Corn plant response rating” value (corn; [6]) of the same molecule?
Answer: 0

Question: And the “Plant response rating, Corn” value (corn; [7])?
Answer: 0

Question: And the “Corn plant response rating” value (corn; [8])?
Answer: 0

Question: And the “B. signalgrass plant response rating” value (surinam grass; [1])?
Answer: 0

Question: And the “B. signalgrass plant response rating” value (surinam grass; [2])?
Answer: 0

Question: And the “B. signalgrass plant response rating (0 to 10 scale)” value (surinam grass; [3])?
Answer: 0

Question: What about the “B. signalgrass plant response rating” value (surinam grass; [4]) of the same molecule?
Answer: 0

Question: What about the “B. signalgrass plant response rating” value (surinam grass; [5]) of the same molecule?
Answer: 2

Question: What about the “B. signalgrass plant response rating” value (surinam grass; [6]) of the same molecule?
Answer: 0

Question: What about the “Plant response rating, B. signalgrass” value (surinam grass; [7]) of the same molecule?
Answer: 0

Question: And the “B. signalgrass plant response rating” value (surinam grass; Rate 500 g/ha, Postemergence, scale of 0 to 10 where 0 is no effect and 10 is complete control)?
Answer: 1

Question: What about the “Blackgrass plant response rating” value (blackgrass; [1]) of the same molecule?
Answer: 3

Question: What about the “Blackgrass plant response rating” value (blackgrass; [2]) of the same molecule?
Answer: 0

Question: What about the “Blackgrass plant response rating (0 to 10 scale)” value (blackgrass; [3]) of the same molecule?
Answer: 0

Question: What about the “Blackgrass plant response rating” value (blackgrass; [4]) of the same molecule?
Answer: 4

Question: What about the “Blackgrass plant response rating” value (blackgrass; [5]) of the same molecule?
Answer: 4

Question: And the “Blackgrass plant response rating” value (blackgrass; [6])?
Answer: 3

Question: What about the “Plant response rating, Blackgrass” value (blackgrass; [7]) of the same molecule?
Answer: 4

Question: And the “Blackgrass plant response rating” value (blackgrass; [8])?
Answer: 6

Question: What about the “Velvetleaf plant response rating” value (velvetleaf; [1]) of the same molecule?
Answer: 0

Question: And the “Velvetleaf plant response rating” value (velvetleaf; [2])?
Answer: 0

Question: What about the “Velvetleaf plant response rating (0 to 10 scale)” value (velvetleaf; [3]) of the same molecule?
Answer: 0

Question: What about the “Velvetleaf plant response rating” value (velvetleaf; [4]) of the same molecule?
Answer: 0

Question: And the “Velvetleaf plant response rating” value (velvetleaf; [5])?
Answer: 0

Question: And the “Velvetleaf plant response rating” value (velvetleaf; [6])?
Answer: 0

Question: And the “Plant response rating, Velvetleaf” value (velvetleaf; [7])?
Answer: 0

Question: And the “Velvetleaf plant response rating” value (velvetleaf; [8])?
Answer: 2

Question: And the “Morningglory plant response rating” value (morningglory; [1])?
Answer: 8

Question: What about the “Morningglory plant response rating” value (morningglory; [2]) of the same molecule?
Answer: 0

Question: What about the “Morningglory plant response rating (0 to 10 scale)” value (morningglory; [3]) of the same molecule?
Answer: 0

Question: And the “Morningglory plant response rating” value (morningglory; [4])?
Answer: 0

Question: And the “Morningglory plant response rating” value (morningglory; [5])?
Answer: 0

Question: And the “Morningglory plant response rating” value (morningglory; [6])?
Answer: 4

Question: What about the “Plant response rating, Morningglory” value (morningglory; [7]) of the same molecule?
Answer: 8

Question: What about the “Morningglory plant response rating” value (morningglory; [8]) of the same molecule?
Answer: 8

Question: And the “Giant foxtail plant response rating” value (giant foxtail; [1])?
Answer: 1

Question: What about the “Giant foxtail plant response rating” value (giant foxtail; [2]) of the same molecule?
Answer: 1

Question: And the “Giant foxtail plant response rating (0 to 10 scale)” value (giant foxtail; [3])?
Answer: 8

Question: And the “Giant foxtail plant response rating” value (giant foxtail; [5])?
Answer: 10

Question: And the “Giant foxtail plant response rating” value (giant foxtail; [6])?
Answer: 0

Question: What about the “Plant response rating, Giant foxtail” value (giant foxtail; [7]) of the same molecule?
Answer: 4

Question: What about the “Giant foxtail plant response rating” value (giant foxtail; [8]) of the same molecule?
Answer: 6

Question: What about the “Nutsedge plant response rating” value (purple nutsedge; [1]) of the same molecule?
Answer: 0

Question: And the “Nutsedge plant response rating” value (purple nutsedge; [2])?
Answer: 0

Question: What about the “Nutsedge plant response rating (0 to 10 scale)” value (purple nutsedge; [3]) of the same molecule?
Answer: 0

Question: And the “Nutsedge plant response rating” value (purple nutsedge; [4])?
Answer: 0

Question: And the “Nutsedge plant response rating” value (purple nutsedge; [5])?
Answer: 0

Question: And the “Nutsedge plant response rating” value (purple nutsedge; [6])?
Answer: 0

Question: What about the “Plant response rating, Nutsedge” value (purple nutsedge; [7]) of the same molecule?
Answer: 0

Question: What about the “Nutsedge plant response rating” value (purple nutsedge; [8]) of the same molecule?
Answer: 0

Question: And the “Barnyardgrass plant response rating” value (bamyardgrass; [9])?
Answer: 0

Question: What about the “Barnyardgrass plant response rating” value (bamyardgrass; [10]) of the same molecule?
Answer: 0

Question: And the “Plant response rating, Barnyardgrass” value (bamyardgrass; [11])?
Answer: 2

Question: What about the “Barnyardgrass plant response rating” value (bamyardgrass; Rate 500 g/ha, listed under Postemergence (flood test species), scale 0 to 10, 0 no effect, 10 complete control) of the same molecule?
Answer: 8
